Measured values taken from patent US12708624B2, “Methods of treating pulmonary fibrosis” (Amplia Therapeutics Limited, priority 2020, dated 2026).
Values belong to the compound of their own block, whether it stands above or below them.

What was measured:
[1] = test system: off-target kinase; conditions: literature; cited from earlier work
[2] = exposure following oral dosing in dogs
[3] = exposure following oral dosing in rats
[4] = test system: common cytochrome P450s; experiment: inhibition of common cytochrome P450s
[5] = test system: primate hepatocytes; experiment: metabolites upon exposure to primate hepatocytes
[6] = exposure following oral dosing in mice
[7] = test system: bleomycin-induced lung fibrosis; experiment: bleomycin-induced lung fibrosis, treatment model; format: in vivo, C57BL/6 mice
Description: (§1) FIG. 1. Protocols used to assess the ability of the compound of Formula I to prevent or treat lung fibrosis induced by intratracheal bleomycin (30 μl; 0.05 U/mouse) or PBS (30 μl; vehicle control).
FIG. 4. […] (a) The Ashcroft score was used to obtain a semi quantitative analysis of fibrosis (n=4 mice per group). (b) Acid-soluble collagen content in the mouse lung (n=8 mice per group).
(§2) FIG. 5. Measurements of airways hyper-responsiveness (AHR) after methacholine challenge in the mouse lung. Panels (a)-(d) prevention protocol at day 23 after a single intra-tracheal dose with PBS or bleomycin and oral dosing with the compound of formula I as indicated. Panels (e)-(h) treatment protocol at day 22 after a single intra-tracheal dose with PBS or bleomycin and oral dose with the compound of formula I as indicated. Panels (a, e) show airways resistance, (b, f) transpulmonary resistance, (c, g) elastance, and (d, h) compliance following challenge with 10 mg/ml methacholine.
(§3) Lung fibrosis in female C57BL/6 mice aged between 6-8 weeks (ARC, Perth, Australia) was induced by a single intra-tracheal dose of bleomycin (0.05 U/mouse). Control mice received 30 μl of buffered saline.
(§4) There were eight mice per group for all experiments and all mice were weighed daily during administration of the treatments.

[8] = test system: dog hepatocytes; experiment: metabolites upon exposure to dog hepatocytes
[9] = test system: bleomycin-induced lung fibrosis; experiment: bleomycin-induced lung fibrosis, prevention model; format: in vivo, C57BL/6 mice; conditions: for lung damage (Ashcroft score): day 23, vs vehicle; for airways resistance (AHR): vs vehicle
Description: as §1
FIG. 3. Prevention Protocol. a) Measurement of mouse lung fibrosis on day 23 after treatment with PBS, bleomycin and vehicle, bleomycin and the compound of formula I 40 mg/kg or 80 mg/kg (n=8 mice per group). (a) The Ashcroft score was used to obtain a semi quantitative analysis of fibrosis (n=4 mice per group). (b) Acid-soluble collagen content in the mouse lung (n=8 mice per group).
as §2, §3
Mice in the prevention study were dosed orally once daily from 24 hours post bleomycin administration until day 22 with either 200 μl of vehicle (Sterile water containing 0.5% (w/v) hydroxypropylmethylcellulose, 0.5% (v/v) benzyl alcohol and 0.4% (v/v) Tween 80), or the compound of Formula I at a dosage of 40 mg/kg or 80 mg/kg by oral gavage.
as §4

[10] = test system: human hepatocytes; experiment: metabolites upon exposure to human hepatocytes
[11] = test system: 467 other kinases; experiment: KINOMEScan assay; format: binding; conditions: tested at 1 micromolar; compared to 467 other kinases
[12] = test system: rat hepatocytes; experiment: metabolites upon exposure to rat hepatocytes
[13] = patients with IPF; cited from earlier work
[14] = test system: idiopathic pulmonary fibrosis; conditions: cited from earlier work; for reduction in the rate of decline in FVC: patients with mild or moderate FVC impairment at baseline, over 1 year of treatment

SMILES: CN(c1ncccc1CNc1nc(Nc2ccc3c(c2)CC(=O)N3)ncc1C(F)(F)F)S(C)(=O)=O [PF-562,271]
- off-target kinase activity [1]: significant off-target kinase activity

SMILES: CNC(=O)c1ccccc1Nc1nc(Nc2ccc(N3CCOCC3)cc2OC)ncc1Cl [TAE226]
- off-target kinase activity [1]: significant off-target kinase activity

- exposure dose proportionality [2]: dose-proportional exposures
- exposure dose proportionality [3]: dose-proportional exposures
- inhibition of common cytochrome P450s [4]: no detectable inhibition
- unique metabolites [5]: no unique metabolites
- exposure dose proportionality [6]: dose-proportional exposures
- unique metabolites [8]: no unique metabolites
- unique metabolites [10]: no unique metabolites
- unique metabolites [12]: no unique metabolites
SMILES: COc1cc(C2CCN(C)CC2)ccc1Nc1ncc(C(F)(F)F)c(CCc2ccccc2CC(N)=O)n1 [compound of Formula I]
- airways resistance (AHR) ([7]; 10 mg/ml methacholine, vs vehicle): no effect on airways resistance
- all other measures of AHR (transpulmonary resistance, elastance, compliance) ([7]; dosing from day 7 after bleomycin, 10 mg/ml methacholine, vs vehicle): effectively reversed the AHR
- lung damage (Ashcroft score) ([7]; dosing from day 7 after bleomycin, day 22, vs vehicle): did not significantly alter bleomycin-induced lung damage
- other measures of AHR (transpulmonary resistance, elastance, compliance) ([9]; 10 mg/ml methacholine): did not significantly inhibit other measures of AHR
- lung damage (Ashcroft score) ([9]; 40 mg/kg oral once daily): attenuated bleomycin-induced lung damage
- airways resistance (AHR) ([9]; 40 mg/kg, 10 mg/ml methacholine): significantly decreased airways resistance
- lung damage (Ashcroft score) ([9]; 80 mg/kg oral once daily): not at 80 mg/kg attenuated bleomycin-induced lung damage
- airways resistance (AHR) ([9]; 80 mg/kg, 10 mg/ml methacholine): significantly decreased airways resistance
- S10 selectivity score [11]: 0.02

SMILES: COC(=O)c1ccc2c(c1)NC(=O)/C2=C(\Nc1ccc(N(C)C(=O)CN2CCN(C)CC2)cc1)c1ccccc1 [nintedanib]
- side effects / most common adverse effects [13]: nausea and diarrhea
- deterioration of FVC on extended treatment ([14]; extended treatment for up to four years): sustained decline in deterioration of FVC
- reduction in the rate of decline in FVC [14]: approximately 50%

SMILES: Cc1ccc(=O)n(-c2ccccc2)c1 [pirfenidone]
- side effects / most common adverse effects [13]: diarrhea, photosensitivity and rash
- reduction in the rate of decline in FVC [14]: approximately 50%
